Source: PMC4275348 (Molecular microbiology, 2014)
Residue numbers refer to the chain shown, from its start. “Also recorded” adds a separate entry of the source.

Experiments:
LuxN = LuxN (Vibrio campbellii, UniProt A7MRY4); type: cell-based, Vibrio harveyi; conditions: IC50 values measured at various concentrations of AI-1
Kin^off LuxN mutants = assay: Bioluminescence of V. harveyi XK006 harboring Kin^off biased luxN alleles; type: cell-based, Vibrio harveyi; conditions: 10 μM 3O-C12 HSL
WT LuxN = WT LuxN (Vibrio campbellii, UniProt A7MRY4); conditions: XK847
LuxN^L166H/N176D = target: T1, LuxN^L166H/N176D (Vibrio campbellii, UniProt A7MRY4, L166H/N176D); assay: Bioluminescence of V. harveyi XK006 carrying luxN L166H/N176D; type: cell-based, Vibrio harveyi; conditions: 10 μM C8 HSL
T1 sequence (A7MRY4 1-849 L166H/N176D): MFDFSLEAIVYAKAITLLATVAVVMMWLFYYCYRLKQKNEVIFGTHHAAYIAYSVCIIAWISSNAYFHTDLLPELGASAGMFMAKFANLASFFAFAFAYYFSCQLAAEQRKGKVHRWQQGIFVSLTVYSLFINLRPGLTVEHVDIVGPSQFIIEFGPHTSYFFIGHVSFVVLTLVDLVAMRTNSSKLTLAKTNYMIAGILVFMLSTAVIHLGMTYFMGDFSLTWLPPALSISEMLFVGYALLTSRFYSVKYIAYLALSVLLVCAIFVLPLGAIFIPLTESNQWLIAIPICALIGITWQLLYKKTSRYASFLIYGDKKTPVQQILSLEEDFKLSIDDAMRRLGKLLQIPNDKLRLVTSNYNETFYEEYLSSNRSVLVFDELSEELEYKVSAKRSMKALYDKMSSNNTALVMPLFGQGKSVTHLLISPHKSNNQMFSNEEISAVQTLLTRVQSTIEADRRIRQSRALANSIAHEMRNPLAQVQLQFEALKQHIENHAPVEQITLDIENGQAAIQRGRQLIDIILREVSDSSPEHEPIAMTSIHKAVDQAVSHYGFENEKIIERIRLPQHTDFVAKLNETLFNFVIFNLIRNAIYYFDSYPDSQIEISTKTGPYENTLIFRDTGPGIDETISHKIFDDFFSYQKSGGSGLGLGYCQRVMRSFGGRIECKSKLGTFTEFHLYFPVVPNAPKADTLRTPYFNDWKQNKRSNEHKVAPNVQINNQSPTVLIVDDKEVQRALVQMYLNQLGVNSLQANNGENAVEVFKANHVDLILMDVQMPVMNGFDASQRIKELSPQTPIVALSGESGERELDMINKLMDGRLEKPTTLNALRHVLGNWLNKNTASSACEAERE

LuxN^G147D/Y194H = target: T2, LuxN^G147D/Y194H (Vibrio campbellii, UniProt A7MRY4, G147D/Y194H); assay: Bioluminescence of V. harveyi XK006 carrying luxN G147D/Y194H; type: cell-based, Vibrio harveyi; conditions: 10 μM C8 HSL
T2 sequence (A7MRY4 1-849 G147D/Y194H): T1 sequence (A7MRY4 1-849 L166H/N176D) with G147D, H166L, D176N, Y194H

WT AinR = assay: Bioluminescence of V. harveyi XK006 harboring WT V. fischeri ainR; type: cell-based, Vibrio fischeri
AinR^Q204H = assay: Bioluminescence of V. harveyi XK006 harboring ainR Q204H; type: cell-based, Vibrio fischeri
[1] = test system: AinR Ser^203 replaced by Ile; assay: Bioluminescence of V. harveyi XK006 harboring ainR S203I; type: cell-based, Vibrio fischeri
LuxN^L166A = LuxN^L166A (Vibrio campbellii, UniProt A7MRY4, L166A)
luxN^L166A/H210N = luxN^L166A/H210N (Vibrio campbellii, UniProt A7MRY4, H210N/L166A); conditions: AHLs added at 1 μM

| Compound | mechanism of antagonism (LuxN) | inhibition of light production (Kin^off LuxN mutants) | light production phenotype (WT LuxN) | higher light compared to DMSO or 20 nM AI-1 (LuxN^L166H/N176D) [fold] | induction of light production (LuxN^G147D/Y194H) [fold] | light production (WT AinR; AHLs added at 1 μM) | sensitivity of the reporter (WT AinR; dose response (Table S3)) | detection (light production) (AinR^Q204H) | detection (light production) [1] | detection (light production) (LuxN^L166A) | light production (luxN^L166A/H210N) |
| --- | --- | --- | --- | --- | --- | --- | --- | --- | --- | --- | --- |
| CCCCCCCCCC(=O)CC(=O)N[C@H]1CCOC1=O [3O-C12 HSL] | competitive | inhibited light production to basal levels; also recorded: reduced light production to basal levels | completely dark phenotype | – | – | – | – | – | – | – | – |
| CCCCCCCC(=O)N[C@H]1CCOC1=O [C8 HSL] | behaved similarly to 3O-C12 HSL | – | – | 3 | 10 | light production was induced | most sensitive | retained the capability to detect | most potent agonist | only modest detection | produced maximal light |
